Results published in patent US20040115209A1, “Compound targeted for specific cells with reduced systemic toxicity” (priority 2000, published 2004).

Assays:
[1] = system: NIH 3T3 cells; settings: mouse fibroblasts
Method: (§1) Competition of Doxorubicin-α-IR3 cytotoxicity was done by adding a 10-fold molar excess of α-IR3 antibody. The survival profile of the cells was measured with the MTT assay 72 hr after plating.

[2] = system: KB cells; assay: MTT cytotoxicity of Doxorubicin-mAb α-IR3, KB cells; format: cell-based; settings: Homo sapiens, 72 h, 3 days, n = 3
Method: as §1

[3] = system: KB-V cells; assay: MTT cytotoxicity of Doxorubicin-mAb α-IR3, KB-V cells (p-glycoprotein resistant); format: cell-based, human
Method: as §1

[4] = system: NWT-b3 cells; settings: mouse, 72 h
Method: as §1

[5] = system: B104 cells; format: in vivo; settings: ˜3.5 nM
Method: Nude mice (seven weeks old, female) were used to test the effect of paclitaxel or conjugates in tumor progression. Single cell suspensions of B104 cells (10^5/mouse) were injected subcutaneously in the left flank near the rib cage. Tumor growth was monitored daily. […] Mice were then randomized and treatments were initiated in four groups (n=5 in each group). […] All treatments were done by a total of five injections every two days (for a total of ten days). All injections were done IP on the right side to prevent direct contact of the agents to the tumor growing subcutaneously, and to assure that systemic circulation of the drugs was achieved. Measurements of tumor volume were taken using calipers, every day post treatment for a total of 25 days.
The timeline was: day −14 injection of tumors subcutaneously, days −10, −8, −6, −4, −2 injection of drugs or controls, days 0-25 measurement of tumor growth daily.
Statistical significance of differences in tumor growth among the different treatment groups was determined by the student t test using SYSTAT 7.0 software. P value is significant when it is <0.05.

[6] = system: NIH-3T3 cells; assay: MTT cytotoxicity of paclitaxel•MC192, cells that do not express p75; format: cell-based, mouse
Method: (§2) The survival profile of the cells was measured with the MTT assay 72 hr after plating.

[7] = system: B104 cells; assay: MTT cytotoxicity of paclitaxel•MC192, B104 cells; format: cell-based, rat; settings: addition of 40 nM MC192
Method: as §2

[8] = system: B104 cells; assay: Kinetics of paclitaxel cytotoxicity: single bolus versus constant exposure (MTT); format: cell-based, rat
Method: It is likely that a single bolus of paclitaxel•antibody conjugate would be delivered because affected cells would not synthesize additional target receptor. Therefore we tested whether a single bolus of paclitaxel would be an effective cytotoxic agent. Cells were exposed to the indicated concentration of paclitaxel for 30 minutes at 4° C. Then, cells were plated in a 96-well plate (Falcon); this group represents treatment with paclitaxel present in a constant manner. The remaining cells were washed free of excess paclitaxel prior to plating; this group represents a single exposure to paclitaxel. […] Optical density readings of MTT were done in an EIA Plate Reader model 2550 (Bio-Rad) at 595 nm.

[9] = system: 4-3.6 cells; assay: In vitro survival assay in serum free media (MTT), 4-3.6 cells; format: cell-based, rat; settings: ˜48 hrs, zVAD 20 nM, conjugate 20 nM VAD equivalent, 1 nM 5C3
Method: 4-3.6 cells are placed in serum free media (SFM, PFHM-II, GIBCO, Toronto), where they undergo apoptosis (serum-withdrawal model).
Cells were then cultured for ˜48 hrs. Cell growth/survival was calculated relative to 5% serum (standardized to 100%).

Compound: COc1cccc2c1C(=O)c1c(O)c3c(c(O)c1C2=O)C[C@@](O)(C(=O)CO)C[C@@H]3O[C@H]1C[C@H](N)[C@H](O)[C@H](C)O1 [Doxorubicin]
- cytotoxicity on cells that do not express IGF-IR [1]: dose-dependent cytotoxicity
- IC50 [2]: 60 ± 2 nM
- IC50 ([3]; Homo sapiens, KBV, 72 h, KB-V cells, 3 days, MTT, n = 3): > 320 nM
- cytotoxicity on multidrug resistant cells ([3]; KB-V compared to sensitive KB cells, with or without Verapamil): inactive on KB-V cells unless Verapamil was added
- cytotoxicity under ligand competition [4]: same cytotoxicity whether excess of mlg or α-IR3 was present or not

Compound: CC(=O)O[C@H]1C(=O)[C@@]2(C)[C@H]([C@H](OC(=O)c3ccccc3)[C@]3(O)C[C@H](OC(=O)[C@H](O)[C@@H](NC(=O)c4ccccc4)c4ccccc4)C(C)=C1C3(C)C)[C@]1(OC(C)=O)CO[C@@H]1C[C@@H]2O [paclitaxel]
- efficacy in vivo at the dose effective for the conjugate [5]: not effective at this dose
- cytotoxicity on cells that do not express p75 [6]: dose-dependent cytotoxicity
- cytotoxicity under ligand competition [7]: same cytotoxicity whether or not 40 nM of mouse IgG or 40 nM of MC192 antibody were added
- cytotoxic effect of a single exposure versus constant exposure ([8]; 20 nM, after 72 and 96 hours of culture): significantly less effective than constant exposure
- cytotoxic effect, single exposure versus constant presence ([8]; 30 minutes at 4° C. exposure, several concentrations, MTT 48, 72, 96 hr): generally the same whether the drug is present in the culture throughout or after a single exposure

Compound: benzoic acid-Valine-Alanine-Aspartic acid-O-methyl-fluoromethylketone peptide [zVAD]
- 4-3.6 Cell Survival (MTT, % of serum control) [9]: −2 ± 3 % of serum control
